Test results taken from patent US11000033B2, “Ketone or oxime compound, and herbicide” (NISSAN CHEMICAL CORPORATION, priority 2014, dated 2021).

What was measured:
Type in all cases: in vivo
[1] = system: Echinochloa oryzacola Vasing.; assay: Test Example 2: herbicidal activity, application during weed generation in submerged conditions (symbol A); details: Table 23; application herbicide amount 320 g/ha; grade 0-5 by criteria of Test Example 1
Method in brief: (§1)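 Weeds emerging under flooded conditions were treated with compound formulated as an emulsion and diluted with water to the intended herbicide amount, poured onto the surface of 4 cm standing water. Seeds had been co-sown in alluvial soil; plants grew at 25° C. to 30° C. and were assessed after 3 weeks.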

[2] = system: Scirpus juncoides; assay: Test Example 2: herbicidal activity, application during weed generation in submerged conditions (symbol B); details: Table 23; application herbicide amount 320 g/ha; grade 0-5 by criteria of Test Example 1
Method in brief: as §1

[3] = system: Echinochloa crus-galli var. crus-galli; assay: Test Example 3: herbicidal effect by foliage application, Wagner pot (symbol H); details: application herbicide amount 320 g/ha
Method in brief: (§2)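 Alluvial soil was flooded to a depth of 0.1–0.5 cm, seeded with the weeds and rice, and kept in a greenhouse at 25–30 °C. After 14 days of growth, the foliage received a small-sprayer application of emulsion diluted to the intended rate; injury was rated at 3 weeks.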

[4] = system: Leptochloa chinensis; assay: Test Example 3: herbicidal effect by foliage application, Wagner pot (symbol D); details: application herbicide amount 320 g/ha
Method in brief: as §2

[5] = system: Digitaria ciliaris; assay: Test Example 4: herbicidal effect by soil treatment (symbol F); details: application herbicide amount 320 g/ha
Method in brief: (§3)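 Seeds were sown in sterilized diluvial soil, covered with about 1.5 cm of soil, and the soil surface was sprayed with a water-diluted emulsion of the compound at a predetermined rate. Plants grew in a greenhouse at 25° C. to 30° C.; effects were scored visually 3 weeks after application.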

[6] = system: Echinochloa crus-galli var. crus-galli; assay: Test Example 4: herbicidal effect by soil treatment (symbol H); details: application herbicide amount 320 g/ha
Method in brief: as §3

[7] = system: Lolium multiflorum Lam.; assay: Test Example 4: herbicidal effect by soil treatment (symbol K); details: application herbicide amount 320 g/ha
Method in brief: as §3

[8] = system: Apera spica-venti; assay: Test Example 4: herbicidal effect by soil treatment (symbol L); details: application herbicide amount 320 g/ha
Method in brief: as §3

[9] = system: Abutilon theophrasti; assay: Test Example 4: herbicidal effect by soil treatment (symbol M); details: application herbicide amount 320 g/ha
Method in brief: as §3

[10] = system: Amaranthus retroflexus; assay: Test Example 4: herbicidal effect by soil treatment (symbol N); details: application herbicide amount 320 g/ha
Method in brief: as §3

[11] = system: rapeseed; assay: Test Example 4: effect on crop by soil treatment (symbol g); details: application herbicide amount 320 g/ha
Method in brief: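 Sterilized diluvial soil, spot sowing, ~1.5 cm soil cover; greenhouse 25–30° C.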

[12] = system: Digitaria ciliaris; assay: Test Example 5: herbicidal effect by foliage application, plastic box (symbol F); details: 320 g/ha, 3 weeks after application
Method in brief: (§4)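 Greenhouse foliar test: seedlings at 14 days, grown 25° C. to 30° C. in sterilized diluvial soil; compound applied as an aqueous dilution of an emulsion; response read 3 weeks after spraying.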

[13] = system: Avena fatua; assay: Test Example 5: herbicidal effect by foliage application, plastic box (symbol I); details: 320 g/ha, 3 weeks after application
Method in brief: as §4

[14] = system: Amaranthus retroflexus; assay: Test Example 5: herbicidal effect by foliage application, plastic box (symbol N); details: 320 g/ha, 3 weeks after application
Method in brief: as §4

[15] = system: Chenopodium album; assay: Test Example 5: herbicidal effect by foliage application, plastic box (symbol O); details: 320 g/ha, 3 weeks after application
Method in brief: as §4

[16] = system: Stellaria media; assay: Test Example 5: herbicidal effect by foliage application, plastic box (symbol P); details: 320 g/ha, 3 weeks after application
Method in brief: as §4

[17] = system: rice plant; assay: Test Example 5: effect on crop by foliage application, plastic box (symbol b); details: 320 g/ha, 3 weeks after application
Method in brief: (§5)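 Crop seed is sown alongside grass and broadleaf weed species in spots in sterilized diluvial soil, then covered to a depth of about 1.5 cm. Plants grow in a greenhouse kept at 25° C. to 30° C.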

[18] = system: wheat; assay: Test Example 5: effect on crop by foliage application, plastic box (symbol e); details: 320 g/ha, 3 weeks after application
Method in brief: as §5

[19] = system: beet; assay: Test Example 5: effect on crop by foliage application, plastic box (symbol f); details: 320 g/ha, 3 weeks after application
Method in brief: as §5

[20] = system: Veronica persica; assay: Test Example 5: herbicidal effect by foliage application, plastic box (symbol R); details: 320 g/ha, 3 weeks after application
Method in brief: as §4

Compound | Herbicidal effect grade, A: Echinochloa oryzacola Vasing. [1] | Herbicidal effect grade, B: Scirpus juncoides [2] | herbicidal effect on H (Echinochloa crus-galli var. crus-galli), grade 0-5 [3] | herbicidal effect on D (Leptochloa chinensis), grade 0-5 [4] | F: Digitaria ciliaris, herbicidal effect grade [5] | H: Echinochloa crus-galli var. crus-galli, herbicidal effect grade [6] | K: Lolium multiflorum Lam., herbicidal effect grade [7] | L: Apera spica-venti, herbicidal effect grade [8] | M: Abutilon theophrasti, herbicidal effect grade [9] | N: Amaranthus retroflexus, herbicidal effect grade [10] | g: rapeseed, effect on crop grade [11] | F: Digitaria ciliaris, herbicidal effect grade [12] | I: Avena fatua, herbicidal effect grade [13] | N: Amaranthus retroflexus, herbicidal effect grade [14] | O: Chenopodium album, herbicidal effect grade [15] | P: Stellaria media, herbicidal effect grade [16] | b: directly sowed rice plant, effect on crop grade [17] | e: wheat, effect on crop grade [18] | f: beet, effect on crop grade [19] | R: Veronica persica, herbicidal effect grade [20]
COCC(=O)CC1CC(O)=C(c2c(C)cc(C)cc2C)C1=O (stereo not shown) [2-007] | 3 (Herbicidal ratio of 40% or higher and lower than 70%) | 0 (Herbicidal ratio of 5% or lower (almost no effect)) | 5 (Herbicidal ratio of 90% or more (almost completely withered)) | 5 (Herbicidal ratio of 90% or more (almost completely withered)) | 5 (Herbicidal ratio of 90% or more (almost completely withered)) | 5 (Herbicidal ratio of 90% or more (almost completely withered)) | 5 (Herbicidal ratio of 90% or more (almost completely withered)) | 3 (Herbicidal ratio of 40% or higher and lower than 70%) | 0 (Herbicidal ratio of 5% or lower (almost no effect)) | 0 (Herbicidal ratio of 5% or lower (almost no effect)) | 4 (Herbicidal ratio of 70% or higher and lower than 90%) | 1 (Herbicidal ratio of 5% or higher and lower than 20%) | 0 (Herbicidal ratio of 5% or lower (almost no effect)) | 0 (Herbicidal ratio of 5% or lower (almost no effect)) | 0 (Herbicidal ratio of 5% or lower (almost no effect)) | 2 (Herbicidal ratio of 20% or higher and lower than 40%) | 3 (Herbicidal ratio of 40% or higher and lower than 70%) | 0 (Herbicidal ratio of 5% or lower (almost no effect)) | 0 (Herbicidal ratio of 5% or lower (almost no effect)) | –
CCOC(=O)C(C(=O)c1ccccc1)C1CC(O)=C(c2c(C)cc(C)cc2C)C1=O (stereo not shown) [2-008] | 0 (Herbicidal ratio of 5% or lower (almost no effect)) | 0 (Herbicidal ratio of 5% or lower (almost no effect)) | 0 (Herbicidal ratio of 5% or lower (almost no effect)) | 0 (Herbicidal ratio of 5% or lower (almost no effect)) | 0 (Herbicidal ratio of 5% or lower (almost no effect)) | 0 (Herbicidal ratio of 5% or lower (almost no effect)) | 3 (Herbicidal ratio of 40% or higher and lower than 70%) | 0 (Herbicidal ratio of 5% or lower (almost no effect)) | 0 (Herbicidal ratio of 5% or lower (almost no effect)) | 0 (Herbicidal ratio of 5% or lower (almost no effect)) | 0 (Herbicidal ratio of 5% or lower (almost no effect)) | 2 (Herbicidal ratio of 20% or higher and lower than 40%) | 0 (Herbicidal ratio of 5% or lower (almost no effect)) | 1 (Herbicidal ratio of 5% or higher and lower than 20%) | 0 (Herbicidal ratio of 5% or lower (almost no effect)) | 0 (Herbicidal ratio of 5% or lower (almost no effect)) | 4 (Herbicidal ratio of 70% or higher and lower than 90%) | 0 (Herbicidal ratio of 5% or lower (almost no effect)) | 0 (Herbicidal ratio of 5% or lower (almost no effect)) | –
CON=C(C)CC1CC(O)=C(c2c(C)cc(-c3ccccc3)cc2C)C1=O (stereo not shown) [6-015] | 5 (Herbicidal ratio of 90% or more (almost completely withered)) | 5 (Herbicidal ratio of 90% or more (almost completely withered)) | 5 (Herbicidal ratio of 90% or more (almost completely withered)) | 5 (Herbicidal ratio of 90% or more (almost completely withered)) | 5 (Herbicidal ratio of 90% or more (almost completely withered)) | 5 (Herbicidal ratio of 90% or more (almost completely withered)) | 5 (Herbicidal ratio of 90% or more (almost completely withered)) | 5 (Herbicidal ratio of 90% or more (almost completely withered)) | 3 (Herbicidal ratio of 40% or higher and lower than 70%) | 5 (Herbicidal ratio of 90% or more (almost completely withered)) | 4 (Herbicidal ratio of 70% or higher and lower than 90%) | 5 (Herbicidal ratio of 90% or more (almost completely withered)) | 4 (Herbicidal ratio of 70% or higher and lower than 90%) | 2 (Herbicidal ratio of 20% or higher and lower than 40%) | 4 (Herbicidal ratio of 70% or higher and lower than 90%) | 3 (Herbicidal ratio of 40% or higher and lower than 70%) | 5 (Herbicidal ratio of 90% or more (almost completely withered)) | 0 (Herbicidal ratio of 5% or lower (almost no effect)) | 0 (Herbicidal ratio of 5% or lower (almost no effect)) | –
CON=C(C)CC1CC(O)=C(c2c(C)cc(C(=O)OC)cc2C)C1=O (stereo not shown) [6-023] | – | – | 5 (Herbicidal ratio of 90% or more (almost completely withered)) | 5 (Herbicidal ratio of 90% or more (almost completely withered)) | 1 (Herbicidal ratio of 5% or higher and lower than 20%) | 0 (Herbicidal ratio of 5% or lower (almost no effect)) | 5 (Herbicidal ratio of 90% or more (almost completely withered)) | 4 (Herbicidal ratio of 70% or higher and lower than 90%) | 0 (Herbicidal ratio of 5% or lower (almost no effect)) | 0 (Herbicidal ratio of 5% or lower (almost no effect)) | 3 (Herbicidal ratio of 40% or higher and lower than 70%) | 5 (Herbicidal ratio of 90% or more (almost completely withered)) | 5 (Herbicidal ratio of 90% or more (almost completely withered)) | 0 (Herbicidal ratio of 5% or lower (almost no effect)) | – | 0 (Herbicidal ratio of 5% or lower (almost no effect)) | 5 (Herbicidal ratio of 90% or more (almost completely withered)) | 3 (Herbicidal ratio of 40% or higher and lower than 70%) | – | 1 (Herbicidal ratio of 5% or higher and lower than 20%)
